# pEC50: −log10 of the molar value. “And” between values parts separate entries of the source, which are not always exact repeats. Equal values may be shown once.
# Columns and labels:
# FXR = biological target: T1, FXR (Mus musculus, UniProt Q60641); test: Cell-based screen: full-length FXR expression vector co-transfected with hormone response element luciferase reporter; details: FXR agonist activity
# T1 construct: expression vector containing the full-length FXR receptor; expressed in transfected cells
# T1 sequence (Q60641 1-488): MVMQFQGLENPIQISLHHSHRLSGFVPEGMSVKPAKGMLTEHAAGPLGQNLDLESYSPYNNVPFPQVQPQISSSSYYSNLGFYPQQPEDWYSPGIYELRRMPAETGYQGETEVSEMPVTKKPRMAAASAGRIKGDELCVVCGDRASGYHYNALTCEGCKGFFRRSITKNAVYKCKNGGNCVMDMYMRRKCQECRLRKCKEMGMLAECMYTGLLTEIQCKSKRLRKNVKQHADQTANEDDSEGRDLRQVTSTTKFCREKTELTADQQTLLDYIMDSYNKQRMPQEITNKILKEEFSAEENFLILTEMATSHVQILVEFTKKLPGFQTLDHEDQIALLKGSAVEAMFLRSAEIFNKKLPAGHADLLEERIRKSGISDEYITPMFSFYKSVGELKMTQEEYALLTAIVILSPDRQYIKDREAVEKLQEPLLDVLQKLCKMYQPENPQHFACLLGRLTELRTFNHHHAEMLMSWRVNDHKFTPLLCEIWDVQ
# T1 sequence (P19793 1-462 partner): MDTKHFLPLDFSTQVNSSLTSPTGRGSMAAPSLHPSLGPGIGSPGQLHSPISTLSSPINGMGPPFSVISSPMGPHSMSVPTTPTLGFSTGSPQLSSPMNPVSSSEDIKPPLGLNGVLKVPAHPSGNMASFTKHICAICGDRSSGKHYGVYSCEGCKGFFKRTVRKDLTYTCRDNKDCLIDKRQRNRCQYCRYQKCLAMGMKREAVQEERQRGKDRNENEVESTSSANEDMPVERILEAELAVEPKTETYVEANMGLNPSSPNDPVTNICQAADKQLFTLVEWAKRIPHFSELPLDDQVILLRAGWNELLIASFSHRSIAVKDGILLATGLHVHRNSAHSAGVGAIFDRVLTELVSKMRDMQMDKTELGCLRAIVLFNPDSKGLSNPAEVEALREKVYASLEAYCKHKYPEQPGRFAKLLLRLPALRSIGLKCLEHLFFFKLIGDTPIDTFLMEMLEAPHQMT
# Protocol: (§1) For transfection of these constructs, monkey CV-1 HEPG2 and HEK293T cells were grown in DMEM supplemented with 10% FBS, 50 U/ml penicillin G, and 50 μg/ml streptomycin sulfate at 37° C. in 7% CO2. CV-1 cells (60%-70% confluence, 48-well plate) were cotransfected with 16.6 ng of the appropriate expression vector, 100 ng of reporter plasmid, and 100 ng of pCMX-LacZ in 200 μl of DMEM containing 10% FBS by the N-[1-(2,3-dioleoyloxy)propyl]-N,N,N-trimethylammonium methylsulfate (DOTAP)-mediated procedure. After 24 hr, the medium was replaced, and cells were harvested and assayed for luciferase activity 36-48 hr after transfection. The luciferase activity was normalized to the level of β-galactosidase activity. Each transfection was performed in triplicate and repeated at least three times.
# To discover novel small molecule ligands for FXR, a constructed combinatorial library of approximately 10 000 benzopyran compounds was screened using a cell-based assay in a 384 well format (Nicolaou et al. (2000). Natural product-like combinatorial libraries based on privileged structures. 1. General principles and solid-phase synthesis of benzopyrans. J. Am. Chem. Soc. 122, 9939-9953; Natural product-like combinatorial libraries based on privileged structures. 2. Construction of a 10000-membered benzopyran library by directed split-and-pool chemistry using nanokans and optical encoding. J. Am. Chem. Soc. 122, 9954-9967; and Natural product-like combinatorial libraries based on privileged structures. 3. The “libraries from libraries” principle for diversity enhancement of benzopyran libraries. J. Am. Chem. Soc. 122, 9968-9976). This cell-based screen was based on the co-transfection of an expression vector containing the full-length FXR receptor with a reporter vector. The reporter vector contains a hormone response element under a minimal eukaryotic promoter driving a luciferase reporter gene. […] Lead compounds were re-tested and checked for cross-reactivity for the retinoid X receptor (RXR), the heterodimeric partner of FXR. None of the identified compounds had the ability to bind or activate RXR.
# Systematic optimization of regions I and II of the prototypical structure through multiple rounds of screening using smaller “focused” chemical libraries defined the requisite features of these domains for high affinity binding to FXR. […] This intelligence gathering was then used to design and synthesize on a solid support a focused library of 94 new compounds for further optimization.
# mouse FXR = biological target: T2, mouse FXR (Mus musculus, UniProt Q60641); test: CV-1 reporter gene assay, mFXR/hRXR with TK minimal, TK-ECRE*6 or TK-ER8*2 luciferase reporter; assay type: cell-based; details: for activation of ECRE FXRE reporter: CV-1, TK-ECRE*6; for activation of ER-8 FXRE reporter: CV-1, TK-ER8*2; for concentration at which maximal activity is achieved / activity on FXRE reporters: ECRE and ER-8 reporters
# T2 construct: expressed in transfected cells; host or cells: CV-1 (monkey)
# T2 sequence (Q60641 1-488): T1 sequence (Q60641 1-488)
# T2 sequence (P19793 1-462 partner): T1 sequence (P19793 1-462 partner)
# Protocol: FIGS. 2A-2F collectively show the results of ligand activation of CV-1 cells co-transfected with FXR constructs pCMX-mFXR and pCMX-hRXR and a luciferase reporter gene containing various promoters as follows: FIG. 2A with a minimal TK promoter, FIG. 2B with a TK-ECRE*6 promoter, FIG. 2C with a TK-ER8*2 promoter, FIG. 2D with HIBABP promoter, FIG. 2E with a hPLTP promoter, or FIG. 2 with a FhMRP-2 promoter.
# as §1
# The ability of these compounds to activate the receptor in a number of different cell-based reporter gene assays was then determined. […] CV-1 cells were transiently transfected with an expression plasmid for mouse FXR and human RXR with a thymidine kinase (minimal promoter reporter vector containing either no copies or six copies of the ecdysone response element (ECRE), a well-characterized FXR response element (FXRE). In addition, two copies of the recently identified FXRE everted repeat separated by 8 nucleotides (ER-8) was also studied (see, for example, Laffitte et al. (2000). Identification of the DNA binding specificity and potential target genes for the farnesoid X-activated receptor. J Biol. Chem. 275(14), 10638-47; Kast et al. (2002). Regulation of multidrug resistance-associated protein 2 (ABCC2) by the nuclear receptors pregnane X receptor, farnesoid X-activated receptor, and constitutive androstane receptor. J Biol Chem. 277(4), 2908-15).
# Similar results were found in a variety of different cell types including liver cells (HEPG2) and kidney cells (HEK 293).
pEC50 (FXR),activation of ECRE FXRE reporter (mouse FXR) [fold],activation of ER-8 FXRE reporter (mouse FXR) [fold],concentration at which maximal activity is achieved (mouse FXR) [µM],activity on FXRE reporters (mouse FXR),Structure (SMILES),activity on minimal TK promoter (mouse FXR; reporter without FXRE)
6.42,–,–,–,little or no activity,COC(=O)/C=C/c1cccc(N(Cc2ccc(-c3ccccc3OC)cc2)C(=O)C(C)C)c1 [SRI-1],–
6.46,–,–,–,little or no activity,COC(=O)/C=C/c1cccc(N(Cc2ccc(-c3ccc(C(C)(C)C)cc3)cc2)C(=O)C(C)C)c1 [SRI-2],–
7.60,100,4,1,–,COC(=O)/C=C/c1cccc(N(Cc2ccc(-c3ccc(N(C)C)cc3)cc2)C(=O)C2CCCCC2)c1 [fexaramine],–
7.44,100,4,1,–,COC(=O)/C=C/c1cccc(N(Cc2ccc(/C=C/c3ccccc3)cc2)C(=O)C2CCCCC2)c1 [fexarene],–
7.42,100,4,1,–,COC(=O)/C=C/c1cccc(N(Cc2ccc(-c3ccc4c(c3)OCO4)cc2)C(=O)C2CCCCC2)c1 [fexarine],–

Structure (SMILES),pEC50 (FXR),activation of ECRE FXRE reporter (mouse FXR) [fold],activation of ER-8 FXRE reporter (mouse FXR) [fold],concentration at which maximal activity is achieved (mouse FXR) [µM],activity on FXRE reporters (mouse FXR),activity on minimal TK promoter (mouse FXR; reporter without FXRE)
"CC(C)c1onc(-c2c(Cl)cccc2Cl)c1COc1ccc(/C=C/c2cccc(C(=O)O)c2)c(Cl)c1 [GW4064, reference compound]",~7.05 and 7.10,100,4,1,–,less than 2 fold
